Columns and labels:
[1] = tested on: MCF-10A normal human mammary gland epithelial cell line; test: Cell viability assay (MTT) on MCF-10A normal cells; settings: dose of 50 μM
Procedure: (§5) The medium in which cells were propagated contained Dulbecco's modified Eagle's medium (DMEM)/ Ham's F-12 medium (1:1) supplemented with epidermal growth factor (20 ng/mL), hydrocortisone (500 ng/mL), insulin (10 μg/mL), 2 mM glutamine and 10% foetal calf serum. After every 2-3 days, the cells were passed using trypsin ethylenediamine tetra acetic acid (EDTA). The cells were seeded at a density of 10^4 cells mL^-1 in flat-bottomed culture plates containing 96 wells each. After 24 h, medium was removed from the plates and the compounds in (in 0.1% DMSO) were added (in 200 μL medium to yield a final concentration of 0.1% v/v) to the wells of plates. A single compound was designated with four wells followed by incubation of plates for 96h at 37°C. After incubation, medium was removed completely from the plates followed by addition of MTT (0.4 mg/mL in medium) to each well and subsequent incubation of plates for 3h. MTT (along with the medium) was removed and DMSO (150μL) was added to each well of the culture plates, followed by vortexing and subsequent measurement of absorbance (at 540 nm) using microplate reader.

[2] = Cell viability assay (MTT) on MCF-10A normal cells; settings: human, MCF-10A normal mammary gland epithelial cells
Procedure: as §5

[3] = tested on: MCF-7 (breast cancer cell line); test: Antiproliferative assay, MCF-7; format: cell-based, human; settings: Homo sapiens, MCF7; read-out: Antiproliferative activity IC50 ± SEM, MCF-7
Description: (§1) Refer to Supplementary Appendix A for more information.
(§2) DMSO (0.1%) was used as control.

[4] = tested on: HT-29 (colon cancer cell line); test: Antiproliferative assay, HT-29; format: cell-based, human; settings: Homo sapiens, read-out: Antiproliferative activity IC50 ± SEM, HT-29
Description: as §1, §2

[5] = tested on: four human cancer cell lines (HT-29, A-549, MCF-7, Panc-1); test: Antiproliferative assay, mean over four cancer cell lines (GI50); settings: Homo sapiens, read-out: Average IC50 (GI50)
Procedure: To calculate the total nuclear DNA, a fluorescent dye (propidium iodide, PI) is used which can attach to the DNA, thus offering a quick and precise technique. PI cannot pass through the cell membrane and its signal intensity can be considered as directly proportional to quantity of cellular DNA. Cells whose cell membranes are damaged or have changed permeability are counted as dead ones. […] The medium was removed; the compounds were added to the plates at 10 µM concentrations (in 0.1% DMSO) in triplicates, followed by incubation for 48 h. DMSO (0.1%) was used as control. After incubation, medium was removed followed by the addition of PI (25 µl, 50µg/mL in water/medium) to each well of the plates. At -80 °C, the plates were allowed to freeze for 24 h, followed by thawing at 25 °C. A fluorometer (Polar-Star BMG Tech) was used to record the readings at excitation and emission wavelengths of 530 and 620 nm for each well. The percentage cytotoxicity of compounds was calculated using the following formula:

[6] = tested on: A-549 (lung cancer cell line); test: Antiproliferative assay, A-549; format: cell-based, human; settings: Homo sapiens, A549; read-out: Antiproliferative activity IC50 ± SEM, A-549
Description: as §1, §2

caspase-8 = test: Caspase-8 activation assay in MCF-7 cells; format: cell-based, human; settings: for Caspase-8 Conc: compound at its IC50 concentration; for Caspase-8 Fold change: vs untreated control
Procedure: (§3) Cells experience apoptosis in reaction to specific signaling cues, resulting in significant modifications. […] They decompose vital cellular components, including nuclear proteins, such as DNA repair enzymes and structural proteins within the cytoskeleton, essential for optimal cellular function.
(§4) Supplementary Appendix A provides more details.
The absorbance of each microwell was read on a spectrophotometer at 450 nm. A standard curve is prepared from 7human Caspase-8 standard dilutions and human Caspase-8 concentration determined.

caspase-3 = test: Caspase-3 activation assay in MCF-7 cells; format: cell-based, human; settings: for Caspase-3 Conc: compound at its IC50 concentration; for Caspase-3 Fold change: vs untreated control
Description: as §3, §4
Allow all reagents to reach room temperature before use. Gently mix all liquid reagents prior to use. Determine the number of 8-well strips needed for the assay. Insert these in the frame(s) for current use. Add 100 μl of the Standard Diluent Buffer to the zero standard wells. Well(s) reserved for chromogen blank should be left empty. Add 100 μl of standards and controls or diluted samples to the appropriate microtiter wells. The sample dilution chosen should be optimized for each experimental system. Tap gently on the side of plate to mix. Cover wells with plate cover and incubate for 2 hours at room temperature. Thoroughly aspirate or decant solution from wells and discard the liquid, Wash wells 4 times. […] Tap gently on the side of the plate to mix. Cover plate with plate cover and incubate for 1 hour at room temperature. Thoroughly aspirate or decant solution from wells and discard the liquid, Wash wells 4 times. Add 100 μl Anti-Rabbit IgG HRP Working Solution to each well except the chromogen blank(s). Prepare the working dilution as described in Preparing IgG HRP. Cover wells with the plate cover and incubate for 30 minutes at room temperature. Thoroughly aspirate or decant solution from wells and discard the liquid. Wash wells 4 times. Add 100 μl of Stabilized Chromogen to each well. The liquid in the wells will begin to turn blue. Incubate for 30 minutes at room temperature and in the dark. The incubation time for chromogen substrate is often determined by the microtiter plate reader used. […] The O.D. values should be monitored, and the substrate reaction stopped before the O.D. of the positive wells exceeds the limits of the instrument. The O.D. values at 450 nm can only be read after the Stop Solution has been added to each well. […] Add 100 μl of Stop Solution to each well. Tap side of plate gently to mix. The solution in the wells should change from blue to yellow. Read the absorbance of each well at 450 nm having blanked the plate reader against a chromogen blank composed of 100 μl each of Stabilized Chromogen and Stop Solution. Read the plate within 2 hours after adding the Stop Solution. Use a curve fitting software to generate the standard curve. […] Read the concentrations for unknown samples and controls from the standard curve. Multiply value(s) obtained for sample(s) by the appropriate dilution factor to correct for the dilution in step 3.

Bcl-2 = Bcl-2 inhibition assay in MCF-7 cells; format: cell-based, human; settings: for Bcl-2 Conc: compound at its IC50
Procedure: The current study supplied compounds 6i and 10e to breast (MCF-7) cancer cell lines at their respective IC50 values. This led to a notable elevation of pro-apoptotic Bax expression, with a fold increase of 34 for compound 6i and 36 for compound 10e.
Compounds 6i and 10e were assessed for their ability to activate caspase-3, caspase-8, and Bax, as well as to downregulate the anti-apoptotic protein Bcl2 in the MCF-7 breast cancer cell line ([Abdelbaset et al., 2019]). Supplementary Appendix A provides more details.
Mix all the reagents thoroughly without foaming before use. Wash the microwells twice with approximately 300 μL Wash Buffer per well with thorough aspiration of microwell contents between washes. Take caution not to scratch the surface of the microwells. After the last wash, empty the wells and tap microwell strips on an absorbent pad or paper towel to remove excess Wash Buffer. Use the microwell strips immediately after washing or place upside down on a wet absorbent paper for not longer than 15 minutes. […] Add 100 μL of Sample Diluent in duplicate to all standard wells and to the blank wells. Prepare standard (1:2 dilution) in duplicate ranging from 32 ng/mL to 0.5 ng/mL. Add 100 μL of Sample Diluent, in duplicate, to the blank wells. Add 80 μL of Sample Diluent, in duplicate, to the sample wells. Add 20 μL of each Sample, in duplicate, to the designated wells. Add 50 μL of diluted biotin-conjugate to all wells, including the blank wells. Cover with a plate cover and incubate at room temperature, on a microplate shaker at 100 rpm if available, for 2 hours. Remove plate cover and empty the wells. Wash microwell strips 3 times as described in step 2. Add 100 μL of diluted Streptavidin-HRP to all wells, including the blank wells. Cover with a plate cover and incubate at room temperature, on a microplate shaker at 100 rpm if available, for 1 hour. Remove the plate cover and empty the wells. Wash microwell strips 3 times as described in step 2. Proceed to the next step. Pipette 100 μl of mixed TMB Substrate Solution to all wells, including the blanks. Incubate the microwell strips at room temperature (18° to 25°C) for about 15 minutes, if available on a rotator set at 100 rpm. Avoid direct exposure to intense light. The point, at which the substrate reaction is stopped, is often determined by the ELISA reader. Many ELISA readers record absorbance only up to 2.0 O.D. Therefore, the color development within individual microwells must be watched by the person running the assay and the substrate reaction stopped before positive wells are no longer properly detectable. Stop the enzyme reaction by quickly pipetting 100 μL of Stop Solution into each well, including the blank wells. It is important that the Stop Solution is spread quickly and uniformly throughout the microwells to completely inactivate the enzyme. Results must be read immediately after the Stop Solution is added or within one hour if the microwell strips are stored at 2 - 8°C in the dark. Read the absorbance of each microwell on a spectrophotometer using 450 nm as the primary wavelength.

SMILES | Impact on non-tumor cells MCF-10A [1] | viability at 4 days, 50 µM [2] | IC50 [3] | IC50 [4] | IC50 [5] | IC50 [6] | Caspase-8 Conc (caspase-8) | Caspase-8 Fold change (caspase-8) | Caspase-3 Conc (caspase-3) | Caspase-3 Fold change (caspase-3) | Bcl-2 Conc (Bcl-2) | Bcl-2 Fold reduction (Bcl-2; vs untreated control)
O=[N+]([O-])c1cccc(-n2cc(Cn3c(SCc4ccccc4)nc4ccccc43)nn2)c1 [10e] | no impact | 90% | 24 ± 2 nM | 25 ± 2 nM | 25 nM | 26 ± 2 nM | 1.75 ± 0.15 ng/mL | 19 | 778 ± 6 pg/mL | 12 | 0.70 ng/mL | ~7
NS(=O)(=O)c1ccc(-n2cc(CSc3nc4ccccc4[nH]3)nn2)cc1 [6i, 4-(4-(((1H-benzimidazol-2-yl)thio)methyl)-1H-1,2,3-triazol-1-yl)benzene-sulfonamide] | no impact | 90% | 28 ± 2 nM | 30 ± 2 nM | 29 nM | 30 ± 2 nM | 1.60 ± 0.20 ng/mL | 18 | 590 ± 5 pg/mL | 9 | 0.85 ng/mL | 
